Results taken from US8431596B2 (Cancer Research Technology Limited, priority 2007, dated 2013).
Values joined by “and” are separate entries in the source; they are usually repeats but may differ in a detail not shown here. Identical values can stand only once.

Assays:
[1] = tested on: Axl activation via the downstream phosphorylation of Akt (serine 473); assay: AXL Inhibition Cell Based ELISA Assay (FACE kit, Gas6-stimulated MDA-MB-231 cells); conditions: Homo sapiens, first data set, Gas6 200 ng/ml, pS473 Akt
Experimental: AXL Inhibition Cell Based ELISA Assay
This cell based ELISA assay is a simple cell-based method used to monitor activation of proteins by phosphorylation. The Active Motif, Fast Activated Cell-based ELISA (FACE) kit (Active Motif Cat No: 48120) was used in this case to monitor the inhibition, by test compounds, of Axl activation via the downstream phosphorylation of Akt (serine 473). In this system, cells are cultured in 96 well plates and treated with test compounds and Axl is activated by the introduction of Gas6 (Axl ligand). The inhibition of Axl can be directly assessed via the reduction of pS^473 Akt levels.
Active Motif FACE Kit reagents (Active Motif Cat. No: 48120(AKT)).
10% hydrogen peroxide (Sigma H1009).
10% Sodium azide (Sigma 7128).
37% Formaldehyde (Sigma F8775).
Axl/Fc conjugate (R&D Systems 154-AL).
Recombinant mouse Gas6 (R&D Systems 986-GS-025).
All cell incubations were carried out in humidified incubators set at 5% CO2 and 37° C. […]
Immunostaining (carried out as outlined in FACE kit protocol). […] 100 μL developing solution was added to each well and monitored for colour change to medium to dark blue (2 to 20 minutes). 100 μL of stop solution was then added and absorbance was read at 450 nm within 5 minutes of addition.
Crystal Violet cell staining. After reading absorbance at 450 nm, the plates were washed twice with 200 μL wash buffer and twice with 200 μL PBS. […]

[2] = target: T1, AXL (human catalytic domain) (Homo sapiens, UniProt P30530); assay: AXL (human catalytic domain) Enzyme Activity Assay (IMAP fluorescence polarisation); format: biochemical
T1 construct: purchased Upstate Ltd. 14-512
T1 sequence (P30530 473-894): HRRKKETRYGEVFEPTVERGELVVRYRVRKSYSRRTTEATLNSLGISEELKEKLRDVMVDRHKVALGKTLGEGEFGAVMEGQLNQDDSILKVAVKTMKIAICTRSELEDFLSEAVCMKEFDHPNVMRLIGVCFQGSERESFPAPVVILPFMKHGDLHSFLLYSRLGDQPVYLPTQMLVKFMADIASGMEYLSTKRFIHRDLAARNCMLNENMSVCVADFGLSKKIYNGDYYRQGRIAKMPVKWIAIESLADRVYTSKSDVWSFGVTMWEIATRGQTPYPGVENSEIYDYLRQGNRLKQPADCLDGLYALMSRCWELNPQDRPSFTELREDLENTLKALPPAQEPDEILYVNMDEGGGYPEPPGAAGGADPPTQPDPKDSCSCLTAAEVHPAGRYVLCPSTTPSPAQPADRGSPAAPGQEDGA
Outline: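 Recombinant human AXL isoform 1 (aa473-894; final 15 nM) phosphorylated 100 nM fluorescein-CSK-tide with 150 μM ATP (KM) in HEPES pH 7.0/MgCl2/DTT buffer for 60 min at room temperature. IMAP fluorescence polarisation read after overnight binding; IC50 from 10-point 4-parameter logistic fits.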

[3] = first data set, recombinant AXL isoform 1 aa473-894, 150 μM ATP
[4] = further data set (WW-001 through WW-169, XX-001 through XX-469, YY-001 through YY-016, ZZ-001 through ZZ-003), 150 μM ATP

Compound | IC50 [1] [µM] | IC50 [2, 3] | IC50 [2, 4] [µM]
CC(C)Oc1cccc(-c2cccc3nc(NC(=O)C4CC4)nn23)c1 [WW-152] |  | 1 to 10 µM | 1 to 10
O=C(Nc1nc2cccc(-c3ccc4c(c3)OCCCO4)n2n1)C1CC1 [WW-144] |  | 1 to 10 µM | 1 to 10
COc1cc(Nc2cccc3nc(NC(=O)C4CC4)nn23)cc(OC)c1OC [WW-161] |  | 1 to 10 µM | 1 to 10
CC(C)CCn1cc(-c2cccc3nc(NC(=O)C4CC4)nn23)cn1 [WW-135] |  | 1 to 10 µM | 1 to 10
O=C(Nc1nc2cccc(NCc3ccccn3)n2n1)C1CC1 [WW-075, Cyclopropanecarboxylic acid {5-[(pyridin-2-ylmethyl)-amino]-[1,2,4]triazolo[1,5-a]pyridin-2-yl}-amide] |  | 1 to 10 µM | 1 to 10
COc1ccc(-c2cccc3nc(Nc4ccc(OC)nc4)nn23)cc1 [XX-010] |  | 1 to 10 µM | 
NCCNc1ccc(-c2cccc3nc(NC(=O)C4CC4)nn23)cc1 [WW-158, Cyclopropanecarboxylic acid {5-[4-(2-amino-ethylamino)-phenyl]-[1,2,4]triazolo[1,5-a]pyridin-2-yl}-amide] |  | 1 to 10 µM | 1 to 10
O=C(Nc1nc2cccc(-c3ccc(N4CCNCC4)cc3)n2n1)C1CC1 [WW-151, Cyclopropanecarboxylic acid [5-(4-piperazin-1-yl-phenyl)-[1,2,4]triazolo[1,5-a]pyridin-2-yl]-amide] |  | 1 to 10 µM | 1 to 10
O=C(Nc1ccc(Cl)cc1)Nc1cccc(-c2cccc3nc(Nc4ccc(OCCN5CCCC5)cc4)nn23)c1 [XX-233] |  |  | 1 to 10
COc1ccc(-c2cccc3nc(NC(=O)C4CC4(F)F)nn23)cc1 (stereo not drawn) [WW-125] |  | 1 to 10 µM | 1 to 10
COc1ccc(-c2cccc3nc(Nc4ccc(OCCNc5ccncc5)cc4)nn23)cc1 [XX-028] |  | < 1 µM | 0.1 to 1
COc1ccc(-c2cccc3nc(Nc4cccc(OCCN5CCOCC5)c4)nn23)cc1 [XX-014] |  | < 1 µM | 0.1 to 1
COc1ccc(-c2cccc3nc(Nc4ccc(S(N)(=O)=O)cc4)nn23)cc1 [XX-063] |  | 1 to 10 µM | 1 to 10
c1cc(-c2ccc(-c3ccsc3)cc2)n2nc(Nc3ccc(OCCN4CCCC4)cc3)nc2c1 [XX-186] |  |  | 0.1 to 1
COc1ccc(-c2cccc3nc(Nc4ccc(C(=O)NCCN5CCCC5)o4)nn23)cc1 [XX-408] |  |  | 0.1 to 1
Cc1cc(COc2cccc(-c3cccc4nc(Nc5ccc(OCCN6CCCC6)cc5)nn34)c2)nn1C [XX-460] |  |  | 0.1 to 1
CC(=O)Nc1cccc(-c2cccc3nc(Nc4ccc(OCCN5CCCC5)cc4)nn23)c1 [XX-241] |  |  | 0.1 to 1

The next lines start with the values.

IC50 [1] [µM] | IC50 [2, 3] | IC50 [2, 4] [µM] | Compound
8.49 | < 1 µM | 0.1 to 1 | CN1CCOc2cc(-c3cccc4nc(NC(=O)C5CC5)nn34)ccc21 [WW-104]
1.03 | < 1 µM | ≤ 0.1 | CCNCCOc1ccc(Nc2nc3cccc(-c4ccc5c(c4)OCCO5)n3n2)cc1 [XX-070]
 | < 1 µM | 0.1 to 1 | COc1ccc(-c2cccc3nc(Nc4ccc(OCCN(C)Cc5ccccc5)cc4)nn23)cc1 [XX-064]
 | < 1 µM | ≤ 0.1 | COc1ccc(-c2nccc3nc(Nc4ccc(C(=O)NCCN(C)C)cc4)nn23)cc1 [YY-004]
 |  | ≤ 0.1 | CCC(C)S(=O)(=O)n1cc(-c2cccc3nc(Nc4ccc(OCCN5CCCC5)cc4)nn23)cn1 (stereo not drawn) [XX-383]
 | < 1 µM | ≤ 0.1 | CCN(CC)CCOc1ccc(Nc2nc3cccc(-c4ccc5c(c4)OCCO5)n3n2)cc1 [XX-075]
 | < 1 µM | 0.1 to 1 | Cn1cc(-c2cccc3nc(NC(=O)C4CC4)nn23)cn1 [WW-064]
 | < 1 µM and 0.105 µM | 0.1 to 1 | COc1ccc(-c2nccc3nc(Nc4ccc(OCCN(C)C)cc4)nn23)cc1 [YY-003]
 |  | 0.1 to 1 | FC(F)(F)Oc1cccc(Cn2cc(-c3cccc4nc(Nc5ccc(OCCN6CCCC6)cc5)nn34)cn2)c1 [XX-366]
 |  | ≤ 0.1 | O=S(=O)(C1CCCCC1)n1cc(-c2cccc3nc(Nc4ccc(OCCN5CCCC5)cc4)nn23)cn1 [XX-381]
 | < 1 µM | 0.1 to 1 | O=C(Nc1nc2cccc(-c3ccc4occc4c3)n2n1)C1CC1 [WW-133]
 |  | ≤ 0.1 | Cc1ccc(-c2nccc3nc(Nc4ccc(OCCN5CCCC5)cc4)nn23)cc1F [YY-014]
 |  | ≤ 0.1 | c1cc(-c2ccc3c(c2)OCCO3)n2nc(Nc3ccc(OCCCN4CCCC4)cc3)nc2c1 [XX-312]
 |  | ≤ 0.1 | OCc1cccc(-c2cccc3nc(Nc4ccc(OCCN5CCCC5)cc4)nn23)c1 [XX-090, (3-{2-[4-(2-Pyrrolidin-1-yl-ethoxy)-phenylamino]-[1,2,4]triazolo[1,5-a]pyridin-5-yl}-phenyl)-methanol]
 |  | 0.1 to 1 | COc1cc(Nc2nc3ccnc(-c4ccc5c(c4)OCCO5)n3n2)ccc1OCCN1CCCC1 [YY-008]
 | < 1 µM | 0.1 to 1 | CC(Oc1ccc(Nc2nc3cccc(-c4ccc5c(c4)OCCO5)n3n2)cc1)C(N)=O (stereo not drawn) [XX-072]
 | < 1 µM | ≤ 0.1 | c1cc(-c2ccc3c(c2)OCCO3)n2nc(Nc3ccc(OCCN4CCCCC4)cc3)nc2c1 [XX-054]
 |  | 0.1 to 1 | Cc1noc(C)c1-c1ccc(-c2cccc3nc(Nc4ccc(OCCN5CCCC5)cc4)nn23)cc1 [XX-190]
 |  | 0.1 to 1 | Cc1cc(-c2cccc3nc(Nc4ccc(OCCN5CCCC5)cc4)nn23)ccc1N(C)C [XX-094]
 |  | 0.1 to 1 | c1cc(-c2cnn(CC3CCCCC3)c2)n2nc(Nc3ccc(OCCN4CCCC4)cc3)nc2c1 [XX-356]
 |  | 0.1 to 1 | O=C(CCN1CCCC1)Nc1cccc(Nc2nc3cccc(-c4ccc5c(c4)OCCO5)n3n2)c1 [XX-109]
 | < 1 µM | 0.1 to 1 | O=C(Nc1nc2cccc(-c3ccc4cc[nH]c4c3)n2n1)C1CC1 [WW-106]
 | < 1 µM | ≤ 0.1 | COc1ccc(-c2cccc3nc(Nc4ccc(OCCN5CCOCC5)cc4)nn23)cc1 [XX-005]
 |  | ≤ 0.1 | COc1ccc(Nc2nc3cccc(-c4ccc5c(c4)OCCO5)n3n2)cc1OCCN1CCCC1 [XX-132]
